“Also recorded” adds a separate entry of the source. Blank lines part the entries; values can stand above or below the molecule they belong to. Non-standard residues stand in square brackets, D forms with d. Residues, ends and D or L forms follow the SMILES beside them. *: point of attachment. X1 = O=C(O)CCCCCCCCCCCCCCCCCCC(=O)N[C@@H](CCC(=O)NCCOCCOCC(=O)NCCOCCOCC(=O)N[C@@H](CCCCNC(=O)C*)C(=O)NCC(=O)O)C(=O)O; Aib = CC(C)(N)C(=O)O
Columns and labels:
DIO mice [1] = assay: Liver cholesterol, triglyceride and glycogen in DIO mice; assay type: in vivo
Description: (§1) After termination, the liver was collected and weighed. Specific liver samples and biopsies were dissected and processed as specified in table “Termination samples” in the protocol and further described below.
The Liver TG TC piece (25±5 mg) was dissected from the right medial lobe, with no edges, on the opposite side of the sponsor piece. The samples were weighed individually, collected in tubes and frozen in liquid nitrogen. The samples were stored at −70° C.
Liver Triglycerides (TG) and Total cholesterol (TC): The liver content of triglyceride and total cholesterol was extracted from the liver samples into 5% NP-40, in a homogenization process followed by a heating step, where the samples were heated twice to 90° C. The samples were then centrifuged, and the supernatant was collected. The TG and TC levels were then determined by measurement on the cobas c 501 autoanalyzer with the relevant commercial kits from Roche Diagnostics.
(§2) Sixty C57BL/6JRj male mice were fed a high fat diet (60% HFD, D12492—Ssniff) for 20 weeks before treatment start. […] Body weight and food intake (24 h) were measured daily. In week 3, an OGTT study was performed. Baseline and preterminal fasting blood glucose and plasma insulin were assessed. Preterminal plasma TC and TG were assessed. Terminal endpoints included liver and heart weight, liver TC, TG, […] and lipid content (HE staining).

[2] = target: T1, glucagon-like peptide-1 (GLP1) receptor (Homo sapiens, UniProt P43220); assay: GLP-1 activity EC50 of OXM analogs and GLP-1 therapeutics (Example 4, Table 9); assay type: cell-based; settings: GLP-1 activity; Table 9; read-out: EC50
T1 construct: expressed in transfected cells; host or cells: CHO-K1
From the text: The potencies of the modified OXM analogs newly disclosed in the present application, the OXM Analog alone, and the PEGylated OXM analog were examined and compared by measuring the EC50 of both receptors, glucagon-like peptide-1 (GLP1) and glucagon (GCGR).

DIO mice [3] = assay: Body composition (fat and lean tissue mass) in DIO mice; assay type: in vivo
Description: The body composition of mice was assessed by an EchoMRI 3 in 1 Body composition analyzer (EchoMRI, US). Non-anaesthetized animals were placed in a plastic tube inside the MRI scanner for approximately 80 seconds. The body composition was reported as fat mass and fat free mass (lean mass).
as §2

DIO mice [4] = assay: Oral glucose tolerance test in DIO mice; assay type: in vivo
Description: Animals were housed in a clean cage and fasted for 4 hours prior to oral or intraperitoneal glucose administration. At timepoint 0, mice receive an oral or intraperitoneal dose of 10 ml/kg of 200 mg/ml standard glucose solution (Fresenius Kabi, DK). At timepoint 0, mice received an oral or intraperitoneal dose of 4 ml/kg of standard 500 mg/ml glucose solution (Fresenius Kabi, DK). Blood samples (10 μl) were collected at various timepoints defined in the study protocol into heparinized glass capillary tubes and immediately suspended in glucose/lactate system solution buffer (EKF-diagnostics, Germany). Blood glucose (BG) was measured using a BIOSEN c-Line glucose meter (EKF-diagnostics, Germany) according to the manufacturer's instructions. After the last blood sample and/or drug dose, the animals were returned to the normal feeding schedule.
as §2

DIO mice [5] = assay: Organ weights at termination in DIO mice; assay type: in vivo; settings: mid and high (5 and 15 nmol/kg)
Description: as §1, §2

DIO mice [6] = assay: Liver H&E staining for lipid droplets / liver lipid in DIO mice; assay type: in vivo
Description: In summary, glass slides with paraffin embedded sections were deparaffinated in xylene and rehydrated in series of graded ethanol.
Slides treated with histochemical and immunohistochemical stains were scanned using a 20× objective in a ScanScope AT slide scanner (Aperio).
Hematoxylin & Eosin (H&E) staining: Sections of FFPE tissue were incubated in Mayer's Hematoxylin (Dako), washed in tap water, stained in Eosin Y solution (Sigma-Aldrich), dehydrated in graded ethanol and cover slipped.
as §2

GCGR = GCGR (Homo sapiens, UniProt P47871); assay: Glucagon activity in vitro of PEGylated and acylated OXM peptide analogs (Table 12); assay type: cell-based
Description: (§5) The potential benefits of novel acylated OXM products relative to the PEGylated OXM peptide were evaluated for GLP-1 and Glucagon activity in vitro, molecular weight, dosing, and efficacy in a DIO Mouse model.
(§6) The potency of the acylated OXM peptides was compared with the native OXM peptide alone and Pegylated OXM peptide to evaluate the impact of acylation on GLP-1 and Glucagon activities.

DIO mice [7] = assay: Fasting blood glucose and plasma insulin in DIO mice; assay type: in vivo
Description: (§3) For in vivo blood samples, tail-vein, tongue or cheek blood was collected in a Microvette tube of appropriate dimensions with anticoagulant and mixed by inversion 5 times. Blood was placed at 4° C. until centrifuged at 3000 g for 10 minutes. The plasma supernatants were transferred to new tubes and immediately frozen on dry ice. The samples were stored at −70° C.
Insulin: Blood samples were collected in heparinized tubes and plasma was separated and stored at −70° C. until analysis. Insulin was measured using the commercial MSD platform (Meso Scale Diagnostics).
as §2

GLP1 = GLP1 (Homo sapiens, UniProt P43220); assay: GLP-1 activity in vitro of PEGylated and acylated OXM peptide analogs (Table 12); assay type: cell-based
Description: as §5, §6

DIO mice [8] = assay: Weight loss in DIO mice with OPK-88604 and OPK-88006, 30 nmoles/kg; assay type: in vivo; settings: vs placebo, listed as OPK-88604
Description: (§4) The animals were individually weighed and analyzed for lipid and cholesterol levels prior to treatment and following completion of the study. The levels of fasting glucose and insulin levels were analyzed, and oral glucose tolerance test was performed and compared between groups The levels of plasma triglycerides and cholesterol were evaluated at the end of study and compared to base levels prior to treatment. Levels of total cholesterol, triglycerides and glycogen were also examined at the end of study. Histology of liver was used to analyze for lipid droplets in the liver. All tests were conducted using routine methods known in the art.
DIO mice with weights of around 55 grams were divided into three groups and treated with placebo, 30 nmoles/kg of OPK-88604, or 30 nmoles/kg of OPK-88006 for 4 weeks. The animals were weighed daily for the period of treatment.

DIO mice [9] = assay: Body weight and food intake in DIO mice, 4 weeks daily treatment; assay type: in vivo
Description: as §4
The mice used in the studies were the gubra diet-induced obese (DIO) mouse model. This mouse model is fed a high fat diet that results in rapid weight gain. The DIO mice were based on male C57BI/6J mice and ready for experiment after 18 weeks on a 60% high fat diet.
To ensure accurate monitoring of weight changes over the course of the study, the animals were weighed daily with precision, prior to dosing at 7:00 AM. Body weight data was recorded in two formats: (1) Absolute measurements: The direct weight of the animal each day, and (2) Relative measurements: The weight expressed as a percentage relative to the body weight recorded on Day 1.
as §2

DIO mice [10] = assay: Plasma cholesterol and triglyceride in DIO mice; assay type: in vivo
Description: as §3, with “termination” for “in vivo”, “during anesthesia with isoflurane, the abdominal cavity was opened, and cardiac” for “tail-vein, tongue or cheek”, “drawn with” for “collected in”, “syringe into a Microvette/Vacuette” for “Microvette tube”
Alanine transaminase (ALT), Aspartate transaminase (AST), Triglycerides (TG) and Total Cholesterol (TC): Blood samples were collected in heparinized tubes and plasma was separated and stored at −70° C. until analysis. Samples were measured using commercial kits (Roche Diagnostics), on the cobas c 501 autoanalyzer.
as §2

[11] = Solubility data of the binder complex; assay type: physicochemical
From the text: The structure and characteristics of the binder complex are detailed in Table 4 below.

[12] = 28 day treatment, vs semaglutide
[13] = mid and high (5 and 15 nmol/kg)
[14] = 15 nmol/kg daily, 28 days, OPK-88604 vs semaglutide
[15] = 28 day treatment, vs semaglutide, listed as OPK-88604

Sequence of GCGR (P47871 26-477): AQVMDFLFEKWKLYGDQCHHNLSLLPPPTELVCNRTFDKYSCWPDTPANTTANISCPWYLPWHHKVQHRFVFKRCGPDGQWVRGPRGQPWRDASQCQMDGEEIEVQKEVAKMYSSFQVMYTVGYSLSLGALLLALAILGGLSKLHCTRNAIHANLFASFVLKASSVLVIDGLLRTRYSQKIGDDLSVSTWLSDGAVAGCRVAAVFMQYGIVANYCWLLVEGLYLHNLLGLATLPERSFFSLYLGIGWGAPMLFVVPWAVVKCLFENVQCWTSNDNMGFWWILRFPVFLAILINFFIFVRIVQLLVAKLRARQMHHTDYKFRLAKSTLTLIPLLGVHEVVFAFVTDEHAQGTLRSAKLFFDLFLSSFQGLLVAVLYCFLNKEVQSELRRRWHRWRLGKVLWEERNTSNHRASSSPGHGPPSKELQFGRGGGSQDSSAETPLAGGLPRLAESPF
Sequence of GLP1 (P43220 24-463): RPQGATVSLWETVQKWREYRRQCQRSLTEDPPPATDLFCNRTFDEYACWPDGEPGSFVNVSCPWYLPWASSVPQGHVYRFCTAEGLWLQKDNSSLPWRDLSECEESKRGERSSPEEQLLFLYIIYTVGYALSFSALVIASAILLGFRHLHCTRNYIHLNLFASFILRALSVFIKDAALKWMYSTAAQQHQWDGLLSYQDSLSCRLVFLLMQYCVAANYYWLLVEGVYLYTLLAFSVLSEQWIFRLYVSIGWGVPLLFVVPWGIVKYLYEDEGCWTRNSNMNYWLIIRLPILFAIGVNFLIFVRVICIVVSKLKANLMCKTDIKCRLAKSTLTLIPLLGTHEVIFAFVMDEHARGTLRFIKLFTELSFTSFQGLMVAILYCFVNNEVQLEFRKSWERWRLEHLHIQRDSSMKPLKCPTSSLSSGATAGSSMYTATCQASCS
T1 sequence (P43220 24-463): as above

EC50 [2]: 0.09 nM
EC50 (GCGR): 0.164 nM
GCGR/GLP-1R (GCGR; ratio of EC50 activity): 10.3
EC50 (GLP1): 0.0159 nM
Molecule: CC[C@H](C)[C@H](NC(=O)[C@H](CC(N)=O)NC(=O)[C@H](CC(N)=O)NC(=O)[C@H](CCCNC(=N)N)NC(=O)[C@H](CC(N)=O)NC(=O)[C@H](CCCNC(=N)N)NC(=O)CNC(=O)C(C)(C)NC(=O)[C@H](CC(N)=O)NC(=O)[C@H](CC(C)C)NC(=O)[C@H](CC(C)C)NC(=O)[C@H](Cc1c[nH]c2ccccc12)NC(=O)[C@H](CCC(N)=O)NC(=O)[C@@H](NC(=O)[C@H](Cc1ccccc1)NC(=O)[C@H](CCC(=O)O)NC(=O)[C@H](CCC(N)=O)NC(=O)[C@H](C)NC(=O)[C@H](CCCCN)NC(=O)[C@H](CCCCN)NC(=O)[C@H](CO)NC(=O)[C@H](CC(=O)O)NC(=O)[C@H](CC(C)C)NC(=O)[C@H](Cc1ccc(O)cc1)NC(=O)[C@H](CCCCN)NC(=O)[C@H](CO)NC(=O)[C@H](Cc1ccc(O)cc1)NC(=O)[C@H](CC(=O)O)NC(=O)[C@H](CO)NC(=O)[C@@H](NC(=O)[C@H](Cc1ccccc1)NC(=O)[C@@H](NC(=O)CNC(=O)[C@H](CCC(N)=O)NC(=O)C(C)(C)NC(=O)[C@@H](N)Cc1c[nH]cn1)[C@@H](C)O)[C@@H](C)O)C(C)C)C(=O)N[C@@H](C)C(=O)N[C@@H](CSCC(=O)NCCCC[C@H](NC(=O)COCCOCCNC(=O)COCCOCCNC(=O)CC[C@H](NC(=O)CCCCCCCCCCCCCCCCCCC(=O)O)C(=O)O)C(=O)NCC(=O)O)C(N)=O [Variant 1] (H-H[Aib]QGTFTSDYSKYLDSKKAQEFVQWLLN[Aib]GRNRNNIAC(X1)-NH2)
total liver cholesterol, P compared to Vehicle (FIG. 25B) (DIO mice [1]; 15 nmol/kg QD SC): < 0.05
total liver cholesterol, triglycerides and glycogen, change from baseline on day 28 (FIG. 28A-C) (DIO mice [1]; [12]): significantly more effective in reducing total liver cholesterol, triglycerides, and glycogen
total liver TC (DIO mice [1]; high (15 nmol/kg)): reduced
liver TG (total and relative) (DIO mice [1]; [13]): reduced
relative fat tissue mass / relative lean tissue mass at week 4, P compared to Vehicle (FIG. 22A, 22B) (DIO mice [3]; 15 nmol/kg QD SC): < 0.01
relative lean body mass and fat mass change from baseline on day 28 (FIG. 24A, 24B) (DIO mice [3]; [14]): statistically similar
blood glucose in response to an oral glucose bolus compared to vehicle controls (DIO mice [4]; all OPK-88604 groups (2, 5, 15 nmol/kg)): reduced blood glucose compared to vehicle controls
glucose AUC in OGTT (FIG. 38B) (DIO mice [4]; treated for 3 weeks, vs semaglutide): statistically lower
glucose levels in Oral Glucose Tolerance test (FIG. 38A) (DIO mice [4]; treated for 3 weeks, vs semaglutide, listed as OPK-88604): more effective in reducing glucose levels in an Oral Glucose Tolerance test compared to Semaglutide
heart weight (DIO mice [5]): reduced
relative liver lipid / total liver lipid, P compared to Vehicle (FIG. 31A, 31B) (DIO mice [6]; 15 nmol/kg QD SC): < 0.001
lipid droplets in liver, H&E staining (FIG. 30A-C) (DIO mice [6]; 28 day treatment, vs placebo and semaglutide, listed as OPK-88604): reduced the amount of lipid droplets in liver compared to placebo and animals treated with semaglutide; also recorded: Significantly reduced the amount of lipid droplets in liver compared to Semaglutide
liver lipid content (total and relative) (DIO mice [6]; high (15 nmol/kg)): reduced
fasting glucose change from baseline on day 28 (FIG. 35A) (DIO mice [7]; [15]): significant decrease in fasting glucose levels compared to semaglutide treatment; also recorded: significantly more effective in lowering fasting glucose levels
fasting insulin change from baseline on day 28 (FIG. 35B) (DIO mice [7]; [15]): marked increase in insulin levels from baseline compared to semaglutide treatment; also recorded: increased insulin levels compared to Semaglutide
blood glucose levels at study week 4 (DIO mice [7]; all doses (2, 5, 15 nmol/kg)): reduced blood glucose levels
plasma insulin levels during the glucose tolerance test and preterminal (DIO mice [7]; high (15 nmol/kg)): decreased
weight loss over 4 weeks (FIG. 41A, 41B) (DIO mice [8]): significant weight loss over 4 weeks compared to placebo
food consumption / cumulative food intake (FIG. 17B, 18B) (DIO mice [9]; [14]): Reduced food consumption significantly less than treatment with semaglutide
weight loss from baseline (FIG. 17A, 18A) (DIO mice [9]; 15 nmol/kg daily, 28 days, OPK-88604 vs semaglutide vs placebo): similar
relative body weight (day 28), P compared to Vehicle (FIG. 16B) (DIO mice [9]; Mid, 5 nmol/kg QD SC): < 0.05
absolute and relative body weight and fat mass compared to the vehicle group (DIO mice [9]; high (15 nmol/kg), four weeks): reduced both absolute and relative body weight and fat mass
relative body weight compared to the vehicle group (DIO mice [9]; mid (5 nmol/kg), four weeks): reduced relative body weight
total plasma cholesterol and triglycerides on day 28 (FIG. 33A, 33B) (DIO mice [10]; [12]): significantly more effective in reducing total plasma cholesterol and triglycerides compared to semaglutide
plasma TC levels at termination (DIO mice [10]; [13]): reduced

Solubility data [11]: Water-based buffer at pHs 6.5-7.5
Molecule: Eicosanedioic-[…]Glu-(AEEA)2-Lys(Ac-Br)-Gly-OH [Binder Complex]

Reference: patent US20250326814A1, “MODIFIED OXYNTOMODULIN AND METHODS OF USE THEREOF” (OPKO BIOLOGICS LTD., priority 2024, published 2025)
